From PMC7731667 (Journal of medicinal chemistry, 2020)

How the values were obtained:
[1] = In vivo pharmacokinetics in mice; design: species or system mouse; settings: for clearance: male, CD-1, mouse, plasma, iv, 10 mg/kg; for time until brain level fell below target therapeutic level: mice, single 10 mg/kg IV dose, target 30 ng/g for 11 and 13B, 120 ng/g for 12
[2] = Mouse liver microsome stability; assay type: in vitro ADME; settings: mouse liver microsomes
Mouse plasma stability = assay type: in vitro ADME; settings: 120 min
Human plasma stability = assay type: in vitro ADME; settings: 120 min
[3] = Human liver microsome stability; assay type: in vitro ADME; settings: human liver microsomes
[4] = pH 7.4

Row | Molecule | time until brain level fell below target therapeutic level [1] | Mplasma stability (Mouse plasma stability) [% @ 120 min] | Hplasma stability (Human plasma stability) [% @ 120 min] | also measured
1 | CC1CC(O)CCC1NC(=O)NCCCCc1ccccc1 (centres unmarked) [Compound 11, 1-(4-hydroxy-2-methylcyclohexyl)-3-(4-phenylbutyl)urea] | 1 h | – | – | clearance [1]: 63.9 mL/min/kg
2 | CC1CCCCC1NC(=O)NCCSc1nnc(C2CC2)n1-c1ccccc1 (centres unmarked) [Compound 1, 1-(2-((5-cyclopropyl-4-phenyl-4H-1,2,4-triazol-3-yl)thio)ethyl)-3-(2-methylcyclohexyl)urea, reference compound] | – | 94 | 95 | half-life at 1 μM [2]: 2 min
3 | O=C(NCCCCc1ccccc1)NC1CCC(O)CC1 (centres unmarked) [Compound 12, 1-(4-hydroxycyclohexyl)-3-(4-phenylbutyl)urea] | 1 h | – | – | clearance [1]: 29.5 mL/min/kg
4 | N-(4-fluoro-4-methylcyclohexyl)-6-phenylhexanamide [Compound 18] | – | – | – | t1/2 MLM [2]: 2.8 min; t1/2 HLM [3]: 10.2 min
5 | CC1CCCCC1NC(=O)NCCCc1nnc(C2CC2)n1-c1ccccc1 (centres unmarked) [Compound 2, 1-(3-(5-cyclopropyl-4-phenyl-4H-1,2,4-triazol-3-yl)propyl)-3-(2-methylcyclohexyl)urea] | – | 100 | 95 | –
6 | 1-(3-(5-cyclopropyl-4-phenyl-4H-1,2,4-triazol-3-yl)propyl)-3-(2-methylcyclohexyl)urea [Compound 3] | – | 84 | 98 | t1/2 MLM [2]: 3 min; t1/2 HLM [3]: 8 min; Solubility [4]: 24
7 | O=C(CCCCCc1ccccc1)N[C@H]1CC[C@H](O)CC1 [Compound 13B, N-(trans-4-hydroxycyclohexyl)-6-phenylhexanamide] | greater than 2 hour | – | – | –
